Experiment: xn = mol fraction of the nth substance listed

Cn1ccnc1 + O
viscosity [mPa·s], 100 kPa
Details	298.15 K	308.15 K	318.15 K
x1 = 0.0499	1.322	1.024	0.821
x1 = 0.0997	1.733	1.313	1.031
x1 = 0.1496	2.155	1.611	1.239
x1 = 0.1996	2.583	1.893	1.451
x1 = 0.2991	3.413	2.423	1.806
x1 = 0.3993	3.978	2.789	2.034
x1 = 0.499	4.032	2.846	2.094
x1 = 0.5989	3.653	2.644	1.983
x1 = 0.6996	3.103	2.278	1.772
x1 = 0.7996	2.561	1.974	1.579
x1 = 0.8493	2.337	1.829	1.491
x1 = 0.8988	2.136	1.673	1.388
x1 = 0.9496	1.96	1.557	1.309

O=BOB([O-])OB([O-])OB=O.[Na+].[Na+] + O
viscosity [mPa·s], 101 kPa
Details	x1 = 0.0009	x1 = 0.0018	x1 = 0.0022	x1 = 0.0027
298.15 K	0.9284	0.9681	0.9845	1.008
308.15 K	0.7526	0.7823	0.7945	0.8122
318.15 K	0.6216	0.6508	0.6626	0.6806

O=C[C@@H](O)[C@@H](O)[C@H](O)[C@H](O)CO + O
viscosity [mPa·s], 101 kPa
Details	293.15 K	303.15 K	308.15 K	313.15 K
x1 = 0.0026	1.052	0.8259	–	0.6702
x1 = 0.005	1.116	0.8625	0.7717	0.6965

OCCN1CCOCC1 + O
101 kPa
Details	viscosity [mPa·s]
303.15 K, x1 = 0.8238	30.25
313.15 K, x1 = 0.1126	13.55

CN(C)c1ccccc1 + O=C1CCCCC1
viscosity [mPa·s], 101 kPa
Details	303.15 K	308.15 K
x1 = 0.0699	1.724	1.569
x1 = 0.1269	1.658	1.502
x1 = 0.1906	1.587	1.432
x1 = 0.2652	1.512	1.353
x1 = 0.3251	1.457	1.299
x1 = 0.4012	1.395	1.245
x1 = 0.4852	1.336	1.195
x1 = 0.5602	1.292	1.161
x1 = 0.6421	1.254	1.136
x1 = 0.7014	1.231	1.124
x1 = 0.7745	1.209	1.114
x1 = 0.8512	1.192	1.113
x1 = 0.9212	1.18	1.112

CN(C)c1ccccc1 + O=S1(=O)CCCC1
viscosity [mPa·s], 101 kPa
Details	x1 = 0.1056	x1 = 0.2173	x1 = 0.2989	x1 = 0.4055	x1 = 0.5001	x1 = 0.6087	x1 = 0.6965	x1 = 0.798	x1 = 0.9131
303.15 K	7.8	5.97	4.93	3.86	3.12	2.47	2.06	1.68	1.36
308.15 K	6.92	5.33	4.44	3.51	2.85	2.26	1.89	1.55	1.26
313.15 K	6.18	4.79	4.01	3.19	2.61	2.08	1.74	1.43	1.17

CN(C)c1ccccc1 + O=[N+]([O-])c1ccccc1
298.15 K, 101 kPa
Details	viscosity [mPa·s]
x2 = 0.1239	1.337
x2 = 0.2063	1.355
x2 = 0.5628	1.488
x2 = 0.6512	1.565
x2 = 0.8325	1.702
x2 = 0.9168	1.766

CCCC[P+](CC)(CC)CC.N#Cc1ccc[n-]1 + OCC(O)CO
100 kPa
Details	viscosity [mPa·s]
293.15 K, x1 = 0.259	933
293.15 K, x1 = 0.34	737
298.15 K, x1 = 0.004	876
298.15 K, x1 = 0.018	953
298.15 K, x1 = 0.129	932
298.15 K, x1 = 0.187	768
303.15 K, x1 = 0.058	695
303.15 K, x1 = 0.08	692
